A short description of the series: wn = mass fraction of the nth substance listed. Conditions: 348 K, 101 kPa, Liquid, Pycnometric method.

± gives the expanded uncertainty stated by the source.

By mass density is commonly meant mass per unit of volume. As to `[Br-].[Br-].[Mg+2]` [magnesium bromide (MgBr2)] + O, the mass density (w1 = 0.5348) is listed as 1674.1 ± 1.8 kg/m3. Take `[Br-].[Br-].[Ca+2]` [calcium bromide] + O: for the setting “w1 = 0.7426”, the mass density stood at 2062.6 ± 3.5 kg/m3.
